# Results reported in ChEMBL document CHEMBL3526083, “Prediction of relative in vivo metabolite exposure from in vitro data using two model drugs: dextromethorphan and omeprazole” (Drug Metab Dispos, 2012).
# Assays:
# Type in all cases: ADME
# [1] = target: T1, UDP-glucuronosyltransferase 1A9 (Homo sapiens, UniProt O60656); assay: Drug metabolism assessed as recombinat UGT1A9 (unknown origin) -mediated dextrophan-O-glucuronide formation
# T1 sequence (O60656 whole entry): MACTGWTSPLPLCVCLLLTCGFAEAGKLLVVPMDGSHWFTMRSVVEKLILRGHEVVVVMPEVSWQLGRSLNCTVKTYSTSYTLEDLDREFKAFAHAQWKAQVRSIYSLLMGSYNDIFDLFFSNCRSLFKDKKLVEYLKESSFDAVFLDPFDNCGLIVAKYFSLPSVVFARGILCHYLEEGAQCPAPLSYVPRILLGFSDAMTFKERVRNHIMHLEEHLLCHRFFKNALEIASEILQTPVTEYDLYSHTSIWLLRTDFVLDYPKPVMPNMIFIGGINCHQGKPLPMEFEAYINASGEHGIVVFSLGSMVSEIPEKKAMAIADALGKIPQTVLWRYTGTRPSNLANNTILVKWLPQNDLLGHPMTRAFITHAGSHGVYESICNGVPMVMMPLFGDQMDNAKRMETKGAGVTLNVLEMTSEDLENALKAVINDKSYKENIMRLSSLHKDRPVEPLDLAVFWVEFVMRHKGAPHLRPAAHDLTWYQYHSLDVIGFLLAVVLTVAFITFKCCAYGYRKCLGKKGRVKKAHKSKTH
# [2] = target: T2, UDP-glucuronosyltransferase 1A10 (Homo sapiens, UniProt Q9HAW8); assay: Drug metabolism assessed as recombinat UGT1A10 (unknown origin) -mediated dextrophan-O-glucuronide formation
# T2 sequence (Q9HAW8 whole entry): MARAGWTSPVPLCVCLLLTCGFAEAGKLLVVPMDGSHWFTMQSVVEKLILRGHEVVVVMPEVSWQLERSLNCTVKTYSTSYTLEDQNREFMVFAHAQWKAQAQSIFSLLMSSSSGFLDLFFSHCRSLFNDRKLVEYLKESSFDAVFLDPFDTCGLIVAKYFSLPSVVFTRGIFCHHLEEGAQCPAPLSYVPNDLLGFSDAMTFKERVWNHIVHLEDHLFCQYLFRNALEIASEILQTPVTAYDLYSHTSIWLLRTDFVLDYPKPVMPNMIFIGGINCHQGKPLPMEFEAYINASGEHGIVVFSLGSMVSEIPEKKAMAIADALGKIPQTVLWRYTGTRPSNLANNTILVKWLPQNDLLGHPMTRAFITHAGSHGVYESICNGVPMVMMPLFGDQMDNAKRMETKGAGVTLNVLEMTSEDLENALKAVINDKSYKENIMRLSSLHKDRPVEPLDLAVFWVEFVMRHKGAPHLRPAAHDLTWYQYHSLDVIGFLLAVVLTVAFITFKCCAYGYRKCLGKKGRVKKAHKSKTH
# Liver microsome [3] = assay: Drug metabolism in human liver microsomes assessed as dextrophan-O-glucuronide formation
# Liver microsome [4] = assay: Drug metabolism in human liver microsomes assessed as dextrophan-O-glucuronide formation measured as intrinsic clearance
# Liver microsome [5] = assay: Drug metabolism in human liver microsomes assessed as dextrophan-O-glucuronide formation measured per mg of microsomal protein in presence of 2% BSA
# Liver microsome [6] = assay: Drug metabolism in human liver microsomes assessed as dextrophan-O-glucuronide formation measured as plasma fraction unbound in presence of 2% BSA
# [7] = target: T3, UDP-glucuronosyltransferase 2B4 (Homo sapiens, UniProt P06133); assay: Drug metabolism assessed as recombinat UGT2B4 (unknown origin) -mediated dextrophan-O-glucuronide formation
# T3 sequence (P06133 whole entry): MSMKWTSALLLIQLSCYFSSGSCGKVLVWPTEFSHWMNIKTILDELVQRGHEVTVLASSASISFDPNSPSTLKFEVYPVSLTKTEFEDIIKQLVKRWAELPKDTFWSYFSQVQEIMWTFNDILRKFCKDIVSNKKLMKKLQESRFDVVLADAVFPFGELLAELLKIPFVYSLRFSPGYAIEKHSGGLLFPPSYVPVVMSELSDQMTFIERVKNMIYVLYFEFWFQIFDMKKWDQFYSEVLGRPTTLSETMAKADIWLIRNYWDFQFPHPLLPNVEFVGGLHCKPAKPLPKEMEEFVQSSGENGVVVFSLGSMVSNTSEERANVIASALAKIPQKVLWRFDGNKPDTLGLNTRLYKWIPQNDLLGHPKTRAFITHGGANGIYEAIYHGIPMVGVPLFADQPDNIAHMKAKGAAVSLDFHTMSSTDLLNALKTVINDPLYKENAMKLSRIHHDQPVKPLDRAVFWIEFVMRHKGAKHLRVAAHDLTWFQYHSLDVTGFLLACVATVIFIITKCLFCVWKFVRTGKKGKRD
# [8] = target: T4, UDP-glucuronosyltransferase 2B7 (Homo sapiens, UniProt P16662); assay: Drug metabolism assessed as recombinat UGT2B7 (unknown origin) -mediated dextrophan-O-glucuronide formation
# T4 sequence (P16662 whole entry): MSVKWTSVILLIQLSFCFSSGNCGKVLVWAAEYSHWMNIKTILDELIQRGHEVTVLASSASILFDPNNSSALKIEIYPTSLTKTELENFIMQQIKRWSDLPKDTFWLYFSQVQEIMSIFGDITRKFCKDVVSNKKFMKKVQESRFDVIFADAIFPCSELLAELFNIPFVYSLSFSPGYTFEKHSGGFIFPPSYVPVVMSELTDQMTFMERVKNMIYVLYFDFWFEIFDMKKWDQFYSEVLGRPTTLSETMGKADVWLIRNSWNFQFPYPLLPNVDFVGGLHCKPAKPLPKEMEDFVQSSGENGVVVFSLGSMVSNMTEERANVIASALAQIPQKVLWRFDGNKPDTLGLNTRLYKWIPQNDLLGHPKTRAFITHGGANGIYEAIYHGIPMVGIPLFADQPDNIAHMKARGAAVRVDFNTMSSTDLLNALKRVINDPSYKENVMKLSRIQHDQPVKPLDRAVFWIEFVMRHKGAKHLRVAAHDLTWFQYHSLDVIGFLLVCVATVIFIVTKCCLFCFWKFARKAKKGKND
# Liver microsome [9] = assay: Drug metabolism in human liver microsomes assessed as 3-hydroxymorphinan formation measured per mg of microsomal protein
compound,measurement,setting,value
CN1CC[C@@]23CCCC[C@@H]2[C@@H]1Cc1ccc(O)cc13 [DEXTRORPHAN],Drug metabolism,[1],metabolite_not_detected
same,Drug metabolism,[2],metabolite_not_detected
same,Km,Liver microsome [3],690 µM
same,CLH,Liver microsome [4],2.9 µL/min/mg
same,Vmax,Liver microsome [5],2.3 nmol/min
same,Fu,Liver microsome [6],0.55
same,Drug metabolism,[7],metabolite_detected
same,Drug metabolism,[8],metabolite_detected
same,Vmax,Liver microsome [9],0.8 nmol/min
